# Measured values published in patent US9522154B2, “Method for scheduling ovulation” (LABORATOIRE HRA-PHARMA, priority 2013, dated 2016).
# Experiments:
# leading ovarian follicle = experiment: Clinical trial of a single oral 30 mg dose on the outcome of the leading ovarian follicle before LH surge; type: in vivo, human; details: follicle 14-16 mm
# Procedure: The results from the clinical trial described in Example 2 were confirmed by a second clinical trial designed to evaluate the effect of a single oral dosage of 30 mg ulipristal acetate on the outcome of the leading ovarian follicle before LH surge, when the follicle was 14-16 mm in diameter. 31 women satisfying all the exclusion/inclusion criteria were enrolled. After the inclusion visit, the women entered the study and underwent ultrasound monitoring starting from Day 5 of their menstrual cycle until the lead follicle reached a diameter of 14-16 mm. At this time, the women received one single dosage of 30 mg ulipristal acetate orally. The women were then monitored daily by ultrasound and hormonal assays until the end of the 21 days treatment period or until ovulation occurred or until the mucus score reached 4 or less at 2 consecutive visits, whichever came first. After which point they were seen twice a week until the end of the study.
# women [1] = experiment: Open-label trial of repeated ulipristal acetate 30 mg oral tablet, once weekly (Q7D) or every 5 days (Q5D) for 8 weeks: ovulation; type: in vivo, human
# Procedure: In an open-label designed trial, 12 women received once weekly (Q7D) treatment with ulipristal acetate (30 mg oral tablet) for eight consecutive weeks starting on 7 days ±1 day after the onset of menses in the first cycle; and 11 women received ulipristal acetate 30 mg every 5 days (Q5D) for 8 weeks. […] The first ovulation occurred after a mean of 3.4 and 6.5 doses, and a mean of 17 and 26 days after start of treatment, in the Q7D and Q5D treatment arms, respectively.
# Whenulipristal acetate was given during the follicular phase before the onset of the LH surge, ovulation occurred between 6 and 9 days of the last treatment intake in the majority of women.
# women [2] = details: single dose of 30 mg within 72 hours or 120 hours after the intercourse; cited from earlier work
structure (smiles),measurement,setting,value
"CC(=O)O[C@]1(C(C)=O)CC[C@H]2[C@@H]3CCC4=CC(=O)CCC4=C3[C@@H](c3ccc(N(C)C)cc3)C[C@@]21C [ulipristal acetate, 17α-acetoxy-11β-[4-N, N-dimethylamino-phenyl)-19-norpregna-4,9-diene-3,20-dione]",mean duration for the ovulation to occur,leading ovarian follicle,7 days
same,median duration for the ovulation to occur,leading ovarian follicle,6 days
same,"Outcome of the leading follicle: Atresia, number of women",leading ovarian follicle; 31 women,0
same,"Outcome of the leading follicle: LUF, number of women",leading ovarian follicle; 31 women,2
same,"Outcome of the leading follicle: Luteal phase insufficiency, number of women",leading ovarian follicle; 31 women,1
same,"Outcome of the leading follicle: Ovulation, number of women",leading ovarian follicle; 31 women,27
same,"Outcome of the leading follicle: Persistent Follicle, number of women",leading ovarian follicle; 31 women,1
same,mean time to first ovulation after start of treatment,"women [1]; Q5D arm, 30 mg every 5 days for 8 weeks",26 days
same,mean number of doses until first ovulation,"women [1]; Q5D arm, 30 mg every 5 days for 8 weeks, 11 women",6.5 doses
same,inhibition of ovulation throughout the duration of treatment,"women [1]; Q7D and Q5D regimens, majority of subjects",Neither regimen inhibited ovulation throughout the duration of treatment in a majority of subjects
same,mean time to first ovulation after start of treatment,"women [1]; Q7D arm, 30 mg oral tablet once weekly for 8 weeks",17 days
same,mean number of doses until first ovulation,"women [1]; Q7D arm, 30 mg oral tablet once weekly for 8 weeks, 12 women",3.4 doses
same,"parameters of the luteal phase (duration, progesterone levels)",women [1]; after exposure to 30 mg,remain within the normal range
same,fertilizability of the oocyte,"women [1]; despite lengthened follicular phase and delay of LH surge, normal pregnancies after 30 mg exposure in emergency contraception trials",the oocyte remains fertilizable
same,avoidance of unwanted pregnancy (emergency contraception),women [2],safe and effective
